According to paper PMC10537403 (Viruses, 2023):
No end group written: not given here.

How the values were obtained:
Assay type in all cases: cell-based
[1] = test system: Schmallenberg virus (SBV); details: BHK-21 cells, SBV 200 TCID50 incubated with peptide 1 h, CPE at 72 h, MTT staining
[2] = test system: VERO/hSLAM, BHK-21, and MDBK cell lines; test: Cytotoxicity, MTT assay; details: 2 and 24 h, peptides […] to 100 μM
[3] = test system: canine distemper virus (CDV, strain Onderstepoort); test: Antiviral activity against CDV, plaque assay, time of addition assays; details: VERO/hSLAM cells, co-treatment, virus pre-treatment, cell pre-treatment, post-treatment
[4] = test system: caprine herpesvirus type 1 (CpHV-1, reference Swiss strain E/CH); test: Antiviral activity against CpHV-1, plaque assay, time of addition assays; details: MDBK cells
[5] = test system: bovine herpesvirus type 1 (BoHV-1, Cooper strain); test: Antiviral activity against BoHV-1, plaque assay, time of addition assays; details: MDBK cells

Substance	Activity against SBV infection (in words) [1]	Cytotoxicity (in words) [2]	Inhibitory effect against CDV in all the time-addition assays (in words) [3]	Antiviral action against CpHV-1 (in words) [4]	Antiviral action against BoHV-1 (in words) [5]
RIGVLLARLPKLFSLFKLMGKKV-NH2 [RV-23]	able to reduce SBV infection with a higher efficacy				
H-GILDAIKAIAKAAG-OH [Hylaseptin-P1, amphibian peptide derived from Leptopelis aubryi]	any activity	not cytotoxic even at higher concentrations tested	did not show an inhibitory effect	no antiviral action	no antiviral action
H-GLADFLNKAVGKVVDFVKS-NH2 [Deserticolin-1, amphibian peptide secreted by Crinia deserticola]	any activity	not cytotoxic even at higher concentrations tested	did not show an inhibitory effect	no antiviral action	no antiviral action
